{"source": "patent US20050154537A1", "about": "“Methods, program products, and systems for single and multi-agent dosing and other related methods” (priority 2003, published 2005)", "format_in_all_cases": "in vivo", "key": {"Platelets": {"test_system": "Platelets", "test": "Lookup table: marker validity (nadir) window, Platelets", "conditions": "days elapsed between current dose and marker", "source_text": "(§1) A lookup table has been constructed (see above example), in the form of a table, to represent the relationship of each trial Agent and its qualified Clinical Markers. This table includes information regarding the Maximum Dose and the Inverse Marker Applicability for each Agent. The gray cells on the Cycle Dose Modifier indicate these values.\n(§2) The table also includes information regarding the nadir of applicability for each Agent—Marker combination. The range, in days and indicated as the Lower Limit and Upper limit, has been determined by calculating a percentage (20%) above and below the true nadir value when only a single value is known. Otherwise, the upper and lower nadir values are used. […] The values of Upper and Lower limits is shown as a property of the Association between Markers and Agents. The Relevancy of a Marker can be computed using the lookup table by comparing the number of days elapsed between the date of the application of the current dose and the date on which the Marker was taken to the upper and lower values for that Agent Marker Association. If the elapsed days are greater than or equal to the lower limit and less than or equal to the upper limit, then the calculations provided by the Cycle Dose Modifier are said to be relevant and thereby applicable as indicated in the yellow Marker Validity cell. The Relevancy of Cycle Dose Modifier Calculations for Agent 1 is based on the Validity of Marker for Agent 1 calculated by: =IF(and((($B13−B6)>=VLOOKUP(B$3,Validity!$A$3:$K$8,10)),((B$13−B6)<=VLOOKUP(B$3,Validity!$A$3:$K$8,11))),“valid”,“invalid”)"}, "Neutrophil Count (ANC) [1]": {"test_system": "Neutrophil Count (ANC)", "test": "Chemotherapeutic triplet cycle dose modifier (Taxol, Gemzar, Carboplatin), toxicity marker", "conditions": "patient on triplet", "source_text": "Table 3 illustrates a method of revising a drug dose in treating a patient with three pharamcologic and non-pharmacological modalities to optimize pharmacologic outcome, e.g., to reduce risk of an adverse drug event while assessing the clinical relevancy and validity of the measured surrogate markers. Previous Level of Toxicity-Efficacy (PLTE) is a value directly entered such as from a lab report. It is the numerical value of the marker of toxicity or efficacy reported at the previous dose cycle adjustment (evaluated at a specified elapsed time sufficient to capture the nadir of the dose effect). The surrogate marker is selected when the dose modifier is constructed. Current Level of Toxicity-Efficacy (CLTE) is a value directly entered such as from a lab report. It is the numerical value of the marker of toxicity or efficacy reported with the current dose cycle. The surrogate marker is that value that illustrates the expression of the toxicity or efficacy of the agent on a specific and pre-selected value determined when the dose modifier is constructed. […] If valid the value is fully appreciated and the dose modification can be calculated. […] The range, in days and indicated as the Lower Limit and Upper limit, has been determined by calculating a percentage (20%) above and below the true nadir value when only a single value is known. […]"}, "Neutrophil Count (ANC) [2]": {"test_system": "Neutrophil Count (ANC)", "test": "Lookup table: marker validity (nadir) window, Neutrophil Count (ANC)", "conditions": "days elapsed between current dose and marker", "source_text": "as §1, §2"}}, "data": [{"smiles": "CC(=O)O[C@H]1C(=O)[C@@]2(C)[C@H]([C@H](OC(=O)c3ccccc3)[C@]3(O)C[C@H](OC(=O)[C@H](O)[C@@H](NC(=O)c4ccccc4)c4ccccc4)C(C)=C1C3(C)C)[C@]1(OC(C)=O)CO[C@@H]1C[C@@H]2O", "note": "[Taxol]", "values": [{"measurement": "Platelets LL", "setting": "Platelets; lower limit of nadir range", "result": 8, "unit": "days"}, {"measurement": "Platelets UL", "setting": "Platelets; upper limit of nadir range", "result": 11, "unit": "days"}, {"measurement": "Current Level of Toxicity/CLTEM1", "setting": "Neutrophil Count (ANC) [1]; current cycle total dose Taxol 450.00, Gemzar 7000.00, Carboplatin 650.00, marker Oct. 30, 2004", "result": 0.80}, {"measurement": "Previous Level of Toxicity/PLTEM1", "setting": "Neutrophil Count (ANC) [1]; previous cycle total dose Taxol 400.00, Gemzar 8000.00, Carboplatin 600.00", "result": 0.40}, {"measurement": "Neutrophil Count (ANC) LL", "setting": "Neutrophil Count (ANC) [2]; lower limit of nadir range", "result": 8, "unit": "days"}, {"measurement": "Neutrophil Count (ANC) UL", "setting": "Neutrophil Count (ANC) [2]; upper limit of nadir range", "result": 11, "unit": "days"}]}]}
